# In patent publication US9006250B2, “4-amino-6-(heterocyclic)picolinates and 6-amino-2-(heterocyclic)pyrimidine-4-carboxylates and their use as herbicides” (Dow AgroSciences, LLC, priority 2013, dated 2015):
# Assays:
# Test in all cases: Post-Emergent Test II herbicidal activity
# Type in all cases: in vivo
# [1] = test system: EPHHL: wild poinsettia (Euphorbia heterophylla); details: post-emergence, 336 h, 14 days, read-out: Visual Growth Reduction (%) 14 Days After Application EPHHL; for pest or weed control at 35 g/ha: 35 g ai/ha; for pest or weed control at 70 g/ha: 70 g ai/ha; for pest or weed control at 140 g/ha: 140 g ai/ha
# Experimental: (§1) Post-Emergent Test II: Seeds or nutlets of the desired test plant species were planted in Sun Gro Metro-Mix® 360 planting mixture, which typically has a pH of 6.0 to 6.8 and an organic matter content of about 30 percent, in plastic pots with a surface area of 64 square centimeters. When required to ensure good germination and healthy plants, a fungicide treatment and/or other chemical or physical treatment was applied. The plants were grown for 7-21 d in a greenhouse with an approximate 15 h photoperiod which was maintained at about 23-29° C. during the day and 22-28° C. during the night. Nutrients and water were added on a regular basis and supplemental lighting was provided with overhead metal halide 1000-Watt lamps as necessary. The plants were employed for testing when they reached the first or second true leaf stage.
# (§2) A weighed amount, determined by the highest rate to be tested, of each test compound was placed in a 25 mL glass vial and was dissolved in 4 mL of a 97:3 v/v mixture of acetone and DMSO to obtain concentrated stock solutions. […] The concentrated stock solutions obtained were diluted with 20 mL of an aqueous mixture containing acetone, water, isopropyl alcohol, DMSO, Atplus 411F crop oil concentrate, and Triton® X-155 surfactant in a 48.5:39:10:1.5:1.0:0.02 v/v ratio to obtain spray solutions containing the highest application rates. Additional application rates were obtained by serial dilution of 12 mL of the high rate solution into a solution containing 2 mL of 97:3 v/v mixture of acetone and DMSO and 10 mL of an aqueous mixture containing acetone, water, isopropyl alcohol, DMSO, Atplus 411F crop oil concentrate, and Triton X®-155 surfactant in a 48.5:39:10:1.5:1.0:0.02 v/v ratio to obtain ½×, ¼×, ⅛× and 1/16× rates of the high rate. Compound requirements are based upon a 12 mL application volume at a rate of 187 liters per hectare (L/ha). Formulated compounds were applied to the plant material with an overhead Mandel track sprayer equipped with 8002E nozzles calibrated to deliver 187 L/ha over an application area of 0.503 square meters at a spray height of 18 inches […] above the average plant canopy height. Control plants were sprayed in the same manner with the solvent blank.
# (§3) The treated plants and control plants were placed in a greenhouse as described above and watered by subirrigation to prevent wash-off of the test compounds. After 14 d, the condition of the test plants as compared with that of the untreated plants was determined visually and scored on a scale of 0 to 100 percent where 0 corresponds to no injury and 100 corresponds to complete kill.
# [2] = test system: CHEAL: lambsquarters (Chenopodium album); details: post-emergence, 336 h, 14 days, read-out: Visual Growth Reduction (%) 14 Days After Application CHEAL; for pest or weed control at 35 g/ha: 35 g ai/ha; for pest or weed control at 70 g/ha: 70 g ai/ha; for pest or weed control at 140 g/ha: 140 g ai/ha
# Experimental: as §1, §2, §3
# [3] = test system: ORYSA: rice (Oryza sativa); details: post-emergence, 336 h, 14 days, read-out: Visual Growth Reduction (%) 14 Days After Application ORYSA; for pest or weed control at 35 g/ha: 35 g ai/ha; for pest or weed control at 70 g/ha: 70 g ai/ha; for pest or weed control at 140 g/ha: 140 g ai/ha
# Experimental: as §1, §2, §3
# [4] = test system: CYPES: yellow nutsedge (Cyperus esculentus); details: post-emergence, 336 h, 14 days, read-out: Visual Growth Reduction (%) 14 Days After Application CYPES; for pest or weed control at 35 g/ha: 35 g ai/ha; for pest or weed control at 70 g/ha: 70 g ai/ha; for pest or weed control at 140 g/ha: 140 g ai/ha
# Experimental: as §1, §2, §3
# [5] = test system: TRZAS: wheat, spring (Triticum aestivum); details: post-emergence, 336 h, 14 days, read-out: Visual Growth Reduction (%) 14 Days After Application TRZAS; for pest or weed control at 35 g/ha: 35 g ai/ha; for pest or weed control at 70 g/ha: 70 g ai/ha; for pest or weed control at 140 g/ha: 140 g ai/ha
# Experimental: as §1, §2, §3
# [6] = test system: AMARE: redroot pigweed (Amaranthus retroflexus); details: post-emergence, 336 h, 14 days, read-out: Visual Growth Reduction (%) 14 Days After Application AMARE
# Experimental: as §1, §2, §3
# [7] = test system: ZEAMX: maize, corn (Zea mays); details: post-emergence, 336 h, 14 days, read-out: Visual Growth Reduction (%) 14 Days After Application ZEAMX; for pest or weed control at 35 g/ha: 35 g ai/ha; for pest or weed control at 70 g/ha: 70 g ai/ha; for pest or weed control at 140 g/ha: 140 g ai/ha
# Experimental: as §1, §2, §3
# [8] = test system: HELAN: sunflower (Helianthus annuus); details: post-emergence, 336 h, 14 days, read-out: Visual Growth Reduction (%) 14 Days After Application HELAN; for pest or weed control at 35 g/ha: 35 g ai/ha; for pest or weed control at 70 g/ha: 70 g ai/ha; for pest or weed control at 140 g/ha: 140 g ai/ha
# Experimental: as §1, §2, §3
# [9] = test system: ABUTH: velvetleaf (Abutilon theophrasti); details: post-emergence, 336 h, 14 days, read-out: Visual Growth Reduction (%) 14 Days After Application ABUTH; for pest or weed control at 35 g/ha: 35 g ai/ha; for pest or weed control at 70 g/ha: 70 g ai/ha; for pest or weed control at 140 g/ha: 140 g ai/ha
# Experimental: as §1, §2, §3
# [10] = test system: BRSNN: oilseed rape, canola (Brassica napus); details: post-emergence, 336 h, 14 days, read-out: Visual Growth Reduction (%) 14 Days After Application BRSNN; for pest or weed control at 35 g/ha: 35 g ai/ha; for pest or weed control at 70 g/ha: 70 g ai/ha; for pest or weed control at 140 g/ha: 140 g ai/ha
# Experimental: as §1, §2, §3
# [11] = test system: ECHCG: barnyardgrass (Echinochloa crus-galli); details: post-emergence, 336 h, 14 days, read-out: Visual Growth Reduction (%) 14 Days After Application ECHCG; for pest or weed control at 35 g/ha: 35 g ai/ha; for pest or weed control at 70 g/ha: 70 g ai/ha; for pest or weed control at 140 g/ha: 140 g ai/ha
# Experimental: as §1, §2, §3
# [12] = test system: SETFA: giant foxtail (Setaria faberi); details: post-emergence, 336 h, 14 days, read-out: Visual Growth Reduction (%) 14 Days After Application SETFA
# Experimental: as §1, §2, §3
smiles,measurement,setting,value
"Nc1c(F)c(-c2ccc3nonc3c2)nc(C(=O)O)c1Cl [Compound 2, 4-Amino-6-(benzo[c][1,2,5]oxadiazol-5-yl)-3-chloro-5-fluoropicolinic acid]",pest or weed control at 35 g/ha,[1],60 to 74%
same,pest or weed control at 70 g/ha,[1],60 to 74%
same,pest or weed control at 140 g/ha,[1],60 to 74%
same,pest or weed control at 35 g/ha,[2],95 to 100%
same,pest or weed control at 70 g/ha,[2],95 to 100%
same,pest or weed control at 140 g/ha,[2],95 to 100%
same,pest or weed control at 35 g/ha,[3],0 to 29%
same,pest or weed control at 70 g/ha,[3],0 to 29%
same,pest or weed control at 140 g/ha,[3],0 to 29%
same,pest or weed control at 35 g/ha,[4],0 to 29%
same,pest or weed control at 70 g/ha,[4],0 to 29%
same,pest or weed control at 140 g/ha,[4],0 to 29%
same,pest or weed control at 35 g/ha,[5],60 to 74%
same,pest or weed control at 70 g/ha,[5],60 to 74%
same,pest or weed control at 140 g/ha,[5],60 to 74%
same,pest or weed control at 35 g/ha,[6]; 35 g ai/ha,95 to 100%
same,pest or weed control at 70 g/ha,[6]; 70 g ai/ha,95 to 100%
same,pest or weed control at 140 g/ha,[6]; 140 g ai/ha,95 to 100%
same,pest or weed control at 35 g/ha,[7],60 to 74%
same,pest or weed control at 70 g/ha,[7],60 to 74%
same,pest or weed control at 140 g/ha,[7],60 to 74%
same,pest or weed control at 35 g/ha,[8],85 to 94%
same,pest or weed control at 70 g/ha,[8],85 to 94%
same,pest or weed control at 140 g/ha,[8],95 to 100%
same,pest or weed control at 35 g/ha,[9],75 to 84%
same,pest or weed control at 70 g/ha,[9],75 to 84%
same,pest or weed control at 140 g/ha,[9],85 to 94%
same,pest or weed control at 35 g/ha,[10],60 to 74%
same,pest or weed control at 70 g/ha,[10],75 to 84%
same,pest or weed control at 140 g/ha,[10],75 to 84%
same,pest or weed control at 35 g/ha,[11],60 to 74%
same,pest or weed control at 70 g/ha,[11],75 to 84%
same,pest or weed control at 140 g/ha,[11],75 to 84%
"COc1cc2nonc2cc1-c1cc(N)c(Cl)c(C(=O)O)n1 [Compound 5, 4-Amino-3-chloro-6-(6-methoxybenzo[c][1,2,5]oxadiazol-5-yl)picolinic acid]",pest or weed control at 35 g/ha,[1],0 to 29%
same,pest or weed control at 70 g/ha,[1],0 to 29%
same,pest or weed control at 140 g/ha,[1],0 to 29%
same,pest or weed control at 35 g/ha,[2],0 to 29%
same,pest or weed control at 70 g/ha,[2],0 to 29%
same,pest or weed control at 140 g/ha,[2],0 to 29%
same,pest or weed control at 35 g/ha,[3],0 to 29%
same,pest or weed control at 70 g/ha,[3],0 to 29%
same,pest or weed control at 140 g/ha,[3],0 to 29%
same,pest or weed control at 35 g/ha,[4],0 to 29%
same,pest or weed control at 70 g/ha,[4],0 to 29%
same,pest or weed control at 140 g/ha,[4],0 to 29%
same,pest or weed control at 35 g/ha,[5],0 to 29%
same,pest or weed control at 70 g/ha,[5],0 to 29%
same,pest or weed control at 140 g/ha,[5],0 to 29%
same,pest or weed control at 35 g/ha,[7],0 to 29%
same,pest or weed control at 70 g/ha,[7],0 to 29%
same,pest or weed control at 140 g/ha,[7],0 to 29%
same,pest or weed control at 35 g/ha,[12]; 35 g ai/ha,0 to 29%
same,pest or weed control at 70 g/ha,[12]; 70 g ai/ha,0 to 29%
same,pest or weed control at 140 g/ha,[12]; 140 g ai/ha,0 to 29%
same,pest or weed control at 35 g/ha,[8],0 to 29%
same,pest or weed control at 70 g/ha,[8],0 to 29%
same,pest or weed control at 140 g/ha,[8],0 to 29%
same,pest or weed control at 35 g/ha,[9],0 to 29%
same,pest or weed control at 70 g/ha,[9],0 to 29%
same,pest or weed control at 140 g/ha,[9],0 to 29%
same,pest or weed control at 35 g/ha,[10],0 to 29%
same,pest or weed control at 70 g/ha,[10],0 to 29%
same,pest or weed control at 140 g/ha,[10],0 to 29%
same,pest or weed control at 35 g/ha,[11],0 to 29%
same,pest or weed control at 70 g/ha,[11],0 to 29%
same,pest or weed control at 140 g/ha,[11],0 to 29%
